Results from article doi:10.1101/2025.05.10.653276 (bioRxiv, 2025).
Like-named read-outs stand apart in the source and are kept apart here.

Columns and labels:
in vitro = settings: human
B. ovis [1] = test: microbe, parasite or virus in culture; type: cell-based, Brucella ovis; settings: for IC50: Brucella ovis
B. ovis [2] = test: microbe, parasite or virus in culture; type: cell-based; settings: Brucella ovis
B. ovis [3] = type: cell-based, Brucella ovis
B. abortus [4] = test: microbe, parasite or virus in culture; type: cell-based, Brucella abortus; settings: for IC50: Brucella abortus, 48 h, read-out: IC50, axenic B. abortus WT (Fig. S6B)
THP-1 cells [5] = test system: THP-1 cells
B. ovis [6] = type: cell-based, Brucella ovis; remark: listed apart in the source
B. abortus [7] = type: cell-based, Brucella abortus
B. abortus [8] = test: microbe, parasite or virus in culture; type: cell-based; settings: Brucella abortus, THP-1, 48 h, read-out: IC50, intracellular B. abortus
THP-1 cells [9] = type: cell-based, human
L-type Ca^2+ channels = settings: read-out: Reported IC50 for L-type Ca^2+ channels; cited from earlier work
B. abortus [10] = type: cell-based, Brucella abortus; remark: listed apart in the source
B. ovis [11] = type: cell-based, Brucella ovis; remark: listed apart in the source
[12] = THP-1, read-out: Intracellular IC50
[13] = 48 h, read-out: IC50, axenic B. ovis growth
[14] = THP-1, 48 h, read-out: IC50, intracellular B. ovis growth

N[C@@H]1C[C@H]1c1ccccc1 (racemic) [Tranylcypromine]
CC50 (in vitro): > 50 µM
IC50 (B. ovis [1]; read-out: Axenic IC50): > 50 µM
IC50 (B. ovis [2]; [12]): > 50 µM

O=C1CCc2ccc(OCCCCN3CCN(c4cccc(Cl)c4Cl)CC3)cc2N1 [Aripiprazole]
CC50 (in vitro): 12 µM

c1ccc(-c2ccc(C(c3ccccc3)n3ccnc3)cc2)cc1 (stereo not shown) [Bifonazole]
CC50 (in vitro): > 50 µM
IC50 (B. ovis [1]; read-out: Axenic IC50): 4 µM
IC50 (B. ovis [2]; [12]): 14 µM

C[C@H](CCC(=O)NCCC[N+](C)(C)CCCS(=O)(=O)[O-])[C@H]1CC[C@H]2[C@@H]3[C@H](O)C[C@@H]4C[C@H](O)CC[C@]4(C)[C@H]3C[C@H](O)[C@]12C [CHAPS]
Sensitivity of WT B. ovis on TSA blood plates (B. ovis [3]): highly sensitive

COCCOC(=O)C1=C(C)NC(C)=C(C(=O)OC/C=C/c2ccccc2)C1c1cccc([N+](=O)[O-])c1 (stereo not shown) [Cilnidipine]
CC50 (in vitro): > 50 µM
Sensitivity of WT and ΔbepE B. abortus in axenic conditions (B. abortus [4]): insensitive
IC50 (B. abortus [4]): > 25 µM
Host cytotoxicity in B. ovis-infected THP-1 cells (THP-1 cells [5]): not due to host cytotoxicity
Growth of WT B. ovis in liquid culture (kinetic growth assay) (B. ovis [6]): failed to grow
CFU recovery of ΔbepE B. abortus relative to wild-type in treated THP-1 cells (B. abortus [7]): significant reduction in CFU recovery
Concentrations inhibiting B. ovis growth in complex liquid broth (B. ovis [1]): above 5 μM
IC50 (B. ovis [1]; [13]): 5.09 µM
IC50 (B. ovis [1]; read-out: Axenic IC50): 5 µM
IC50 (B. abortus [8]): 13.5 µM
IC50 (B. ovis [2]; [14]): 2.5 µM
IC50 (B. ovis [2]; [12]): 2 µM

OCCN(CCO)c1nc(N2CCCCC2)c2nc(N(CCO)CCO)nc(N3CCCCC3)c2n1 [Dipyridamole]
CC50 (in vitro): 41 µM
IC50 (B. ovis [1]; read-out: Axenic IC50): > 50 µM
IC50 (B. ovis [2]; [12]): > 50 µM

CCCCN(CCCC)CCC(O)c1cc2c(Cl)cc(Cl)cc2c2cc(C(F)(F)F)ccc12 (stereo not shown) [Halofantrine]
CC50 (in vitro): > 50 µM
IC50 (B. ovis [1]; read-out: Axenic IC50): 11 µM
IC50 (B. ovis [2]; [12]): > 50 µM

COc1ccc(CN2CCN(C(c3ccc(F)cc3)c3ccc(F)cc3)CC2)c(OC)c1OC [Lomerizine]
CC50 (in vitro): 50 µM
IC50 (B. ovis [1]; read-out: Axenic IC50): > 50 µM
IC50 (B. ovis [2]; [12]): 9 µM

COC(=O)C1=C(C)NC(C)=C(C(=O)OCCN(C)Cc2ccccc2)C1c1cccc([N+](=O)[O-])c1 (stereo not shown) [Nicardipine]
CC50 (in vitro): 49 µM
Sensitivity of WT and ΔbepE B. abortus in axenic conditions (B. abortus [4]): insensitive
IC50 (B. abortus [4]): > 25 µM
Host cytotoxicity in B. ovis-infected THP-1 cells (THP-1 cells [5]): not due to host cytotoxicity
Growth of WT B. ovis in liquid culture (kinetic growth assay) (B. ovis [6]): modest lag
WT B. abortus CFUs recovered from treated THP-1 cells compared to untreated controls (B. abortus [7]): significantly fewer
Effect on terminal density of B. ovis in axenic culture (B. ovis [1]): did not affect the terminal density
IC50 (B. ovis [1]; [13]): > 25 µM
IC50 (B. ovis [1]; read-out: Axenic IC50): > 50 µM
Increase in intracellular calcium and manganese levels (THP-1 cells [9]): 20–40%
IC50 (B. abortus [8]): 4.4 µM
IC50 (L-type Ca^2+ channels): ~25 µM
IC50 (B. ovis [2]; [14]): 2.3 µM
IC50 (B. ovis [2]; [12]): 2 µM

CCOc1ccc(NC(C)=O)cc1 [Phenacetin]
CC50 (in vitro): > 50 µM
IC50 (B. ovis [1]; read-out: Axenic IC50): > 50 µM
IC50 (B. ovis [2]; [12]): > 50 µM

CC(=O)SCC(Cc1ccccc1)C(=O)NCC(=O)OCc1ccccc1 (stereo not shown) [Racecadotril]
CC50 (in vitro): > 50 µM
IC50 (B. ovis [1]; read-out: Axenic IC50): > 50 µM
IC50 (B. ovis [2]; [12]): > 50 µM

CCCCCCCCCCCCOS(=O)(=O)[O-].[Na+] [SDS, sodium dodecyl sulfate]
Sensitivity of WT B. ovis on TSA blood plates (B. ovis [3]): highly sensitive

C[C@H](CCC(=O)O)[C@H]1CC[C@H]2[C@@H]3CC[C@@H]4C[C@H](O)CC[C@]4(C)[C@H]3C[C@H](O)[C@]12C [deoxycholate]
IC50 (B. abortus strain WT) (B. abortus [4]): 0.067%
IC50 (B. abortus strain ΔbepE glmS::bepDE) (B. abortus [4]): 0.052%
IC50 (B. abortus strain ΔbepE) (B. abortus [4]): 0.021%
Sensitivity of WT B. ovis on TSA blood plates (B. ovis [3]): highly sensitive
Growth of WT B. abortus on solid media (B. abortus [10]): modestly impaired WT growth
Growth of ΔbepE B. abortus on solid media (B. abortus [10]): unable to grow

COC(=O)C1=C(C)NC(C)=C(C(=O)OC)C1c1ccccc1[N+](=O)[O-] [nifedipine]
Hit in B. ovis intracellular screen (B. ovis [11]): neither compound emerged as a hit

COc1ccc(CCN(C)CCCC(C#N)(c2ccc(OC)c(OC)c2)C(C)C)cc1OC (stereo not shown) [verapamil]
Hit in B. ovis intracellular screen (B. ovis [11]): neither compound emerged as a hit
